Assay type in all cases: cell-based
The target in experiment [1] is T1, LPA receptor LPAR5 (Homo sapiens, UniProt Q9H1C0).
T1 construct: two cell lines were used with high LPAR5 expression, the human mast cell line HMC-1; endogenous in cells; host or cells: HMC-1 human mast cell line
The experiment in a line: FLIPR assay, intracellular Ca2+ release in human mast cell line HMC-1. To be noted: human mast cell line HMC-1, LPA-stimulated Ca2+ release, compound added 10 minutes prior LPA. An excerpt: (§1) B) Use of the Fluorometric Imaging Plate Reader (FLIPR) Assay for the Determination of Intracellular Ca^2+ Release in Human Mast Cell Line HMC-1 and the Murine Microglia Cell Line BV-2
(§2) The ability of the compounds of the formula I to inhibit or bind the LPA receptor LPAR5 can be assessed by determining the intracellular Ca^2+ release in human or animal cells. For the analysis of activating potential of LPA and the inhibitory effects of compounds of the formula I two cell lines were used with high LPAR5 expression, the human mast cell line HMC-1 and the murine microglia cell line BV-2 (FIGS. 1 and 2). For the FLIPR assay using human mast cells in a 96-well-format, HMC-1 suspension cells from flask culture were harvested, resuspended and counted. 14×10^6 HMC-1 cells were transferred into a new 50 ml tube, centrifuged for 3 minutes at 540×g. The resulting cell pellet at the bottom of the tube was resuspended with 15 ml loading buffer (loading buffer contained HBSS buffer (pH 7.4), 0.1% BSA (bovine serum albumin), 2 μM FLUO-4 dye; HBSS buffer (pH 7.4) contained 1×HBSS, 20 mM HEPES, 0.01% Pluronic F-127, 2.5 mM Probenicid).
Cells in loading buffer were incubated for 45-60 minutes at 37° C. After incubation cells were centrifuged for 3 minutes at 540×g and resuspended with 21 ml of HBSS buffer (pH 7.4). Each well of a poly-D-lysine coated 96-well-plate was filled with 150 μl cell solution, an equivalent of 100 000 cells/well. The 96-well-plate was centifuged for 2 minutes at 100×g (without brake) prior a recovery time of 30 minutes at 37° C. After this procedure cells were stimulated with LPA (in HBSS pH 7.4 and 0.1% BSA) to determine the EC50 of LPA in HMC-1 cells. For the determination of the inhibitory effect of compounds of the formula I, test compounds were added to the cells in the 96-well-plate 10 minutes prior the addition of LPA. Results of the assay are expressed as % activation, and are calculated using maximum peak of activation (Amax). […]

Experiment [2] concerns the target T2, LPA receptor LPAR5 (Mus musculus, UniProt Q149R9).
T2 construct: two cell lines were used with high LPAR5 expression, the human mast cell line HMC-1 and the murine microglia cell line BV-2; endogenous in cells; host or cells: BV-2 murine microglia cell line
The experiment in a line: FLIPR assay, intracellular Ca2+ release in murine microglia cell line BV-2. To be noted: murine microglia cell line BV-2, LPA-stimulated Ca2+ release, compound added 10 minutes prior LPA.
Description: as §1, §2
Cells in loading buffer were incubated for 45-60 minutes at 37° C. […] Results of the assay are expressed as % activation, and are calculated using maximum peak of activation (Amax). […]

In experiment [3] the target is T3, platelet LPA receptor LPAR5 (Homo sapiens, UniProt Q9H1C0).
T3 construct: the cellular pellet, consisting of human blood platelets was then dissolved in 10 ml buffer T; endogenous in cells; host or cells: washed human blood platelets from healthy volunteers
The experiment in a line: Aggregation assay for washed human blood platelets (LPA-induced). The settings on record: reduction of maximal aggregation, 5 min preincubation at 37° C. On the procedure: A) Aggregation Assay for Washed Human Blood Platelets (Thrombocytes)
Whole blood was collected from healthy volunteers using 3×20 ml syringes containing each 1/10 volume of buffered citrate. The anticoagulated whole blood was transferred into 50 ml polypropylene conical tubes (30 ml per tube). The tubes were centrifuged for 10 minutes at 150×g at room temperature without using the centrifuge brake. This procedure results in a lower phase of cellular components and a supernatant (upper phase) of platelet rich plasma (PRP). The PRP phase was collected from each tube and pooled for each donor. […] The platelet concentration was determined using a ABX Micros 60 counter. […] Platelet concentration in this solution was determined and buffer T was added to obtain a final concentration of 3.5×10^5 platelets per ml.
After 10 minutes at room temperature, 1 μl PGI2 per ml platelet solution was added and distributed into new 10 ml tubes. […] Aggregation was measured over 6 minutes at 37° C. with 1200 rpm (revolutions per minute) stirring. Results of the assay are expressed as % activation, and are calculated using maximum aggregation (Tmax) or area under curve (AUC) of the absorbance over 6 minutes. The inhibitory effect (IC50) of the test compounds was determined as the reduction of the maximal aggregation. […]

This passage reports IC50 results from patent US9346757B2, “Pyridine derivatives and their use in the treatment of conditions associated with pathological thrombus formation” (SANOFI, priority 2012, dated 2016).

Broadly, the IC50 is the point on the concentration scale where inhibition reaches its midpoint. Low readings indicate higher potency, high ones lower potency.

T1 sequence (Q9H1C0 whole entry): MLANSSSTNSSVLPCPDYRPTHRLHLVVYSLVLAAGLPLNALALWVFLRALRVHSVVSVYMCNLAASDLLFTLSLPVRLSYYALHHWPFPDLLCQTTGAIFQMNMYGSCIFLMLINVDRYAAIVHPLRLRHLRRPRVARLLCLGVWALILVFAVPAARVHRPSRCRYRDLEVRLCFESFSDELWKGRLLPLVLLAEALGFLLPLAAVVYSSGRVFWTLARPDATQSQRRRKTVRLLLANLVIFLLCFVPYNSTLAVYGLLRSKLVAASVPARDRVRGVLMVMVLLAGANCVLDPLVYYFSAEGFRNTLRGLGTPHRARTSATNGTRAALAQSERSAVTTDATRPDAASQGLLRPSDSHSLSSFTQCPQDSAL
T3 sequence (Q9H1C0 whole entry): as above
T2 sequence (Q149R9 whole entry): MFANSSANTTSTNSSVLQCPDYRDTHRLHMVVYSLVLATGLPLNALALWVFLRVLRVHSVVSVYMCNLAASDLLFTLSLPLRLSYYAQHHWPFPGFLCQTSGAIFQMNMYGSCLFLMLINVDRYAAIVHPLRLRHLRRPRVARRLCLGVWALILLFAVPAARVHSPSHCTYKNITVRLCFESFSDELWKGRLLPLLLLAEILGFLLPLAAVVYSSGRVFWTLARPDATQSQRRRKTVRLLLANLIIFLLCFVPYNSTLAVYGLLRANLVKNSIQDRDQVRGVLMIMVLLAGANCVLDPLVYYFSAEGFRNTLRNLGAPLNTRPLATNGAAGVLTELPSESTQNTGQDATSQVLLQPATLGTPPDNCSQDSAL

For the compound `Cc1nc(-c2ccc(C(F)(F)F)cc2)c(-c2ccc(Cl)cc2Cl)cc1COC(C)C(=O)Nc1ccc(C(=O)O)cc1` (centres unmarked) [Example 1, 4-{2-[5-(2,4-Dichloro-phenyl)-2-methyl-6-(4-trifluoromethyl-phenyl)-pyridin-3-ylmethoxy]-propionylamino}-benzoic acid], the IC50 on LPA receptor LPAR5 [1] is 3.7 µM.

As to `Cc1nc(-c2ccc(Cl)cc2)c(-c2ccc(Cl)cc2Cl)cc1COC(C)(C)C(=O)NCc1ccc(C(=O)O)cc1` [Example 14, 4-({2-[6-(4-Chloro-phenyl)-5-(2,4-dichloro-phenyl)-2-methyl-pyridin-3-ylmethoxy]-2-methyl-propionylamino}-methyl)-benzoic acid], the values for the IC50 (against LPA receptor LPAR5 [1]; on LPA receptor LPAR5 [2]; in experiment [3]) were 0.13 µM, 3.2 µM and 3.6 µM, respectively.

Consider `Cc1nc(-c2ccc(Cl)cc2)c(-c2ccc(Cl)cc2Cl)cc1COC(C)(C)C(=O)NCCCC(=O)O` [Example 15, 4-{2-[6-(4-Chloro-phenyl)-5-(2,4-dichloro-phenyl)-2-methyl-pyridin-3-ylmethoxy]-2-methyl-propionylamino}-butyric acid], for which the IC50 against LPA receptor LPAR5 [1] was found to be 1.8 µM.
